# Biological target: Muscarinic acetylcholine receptor
# Experiment: Displacement of [3H]-QNB from muscarnic receptor in Rattus norvegicus (rat) cerebral cortex after 90 min by scintillation counting analysis
# Type: tissue-based
row,IC50,SMILES
1,340 nM,CCC1(CC)CC(CN2CCN(C(c3ccccc3)c3ccccc3)CC2)OC1=O (stereo unspecified)

# Biological target: Muscarinic acetylcholine receptor (Rattus norvegicus) (UniProt P08482+P08483+P08485+P08911+P10980)
# Experiment: Displacement of [3H]-QNB from muscarnic receptor in Rattus norvegicus (rat) cerebral cortex at 10 uM after 90 min by scintillation counting analysis
# Type: tissue-based
row,inhibition,SMILES
1,32%,CCC1(CC)CC(CN2CCN(c3ccccc3OC)CC2)OC1=O (stereo unspecified)
2,31%,CCC1(CC)CC(COC(=O)Nc2ccc(N3CCCCC3)cc2)OC1=O (stereo unspecified)
3,31%,CCC1(CC)CC(CN2CCN(c3ccccc3C#N)CC2)OC1=O (stereo unspecified)
4,26%,CCC1(CC)CC(CN2CCN(c3ccc(OC)cc3)CC2)OC1=O (stereo unspecified)
5,16%,CCC1(CC)CC(CN2CCN(c3ccccc3)CC2)OC1=O (stereo unspecified)
6,97%,CCC1(CC)CC(CN2CCN(C(c3ccccc3)c3ccccc3)CC2)OC1=O (stereo unspecified)
7,68%,CCC1(CC)CC(CN2CCC(c3ccccc3)CC2)OC1=O (stereo unspecified)
8,46%,CCC1(CC)CC(CN2CCN(c3ccccc3O)CC2)OC1=O (stereo unspecified)
9,46%,CCC1(CC)CC(CN2CCC(c3nc4ccccc4[nH]3)CC2)OC1=O (stereo unspecified)
10,18%,CCC1(CC)CC(CN2CCN(c3ccc([N+](=O)[O-])cc3)CC2)OC1=O (stereo unspecified)
11,5%,CCC1(CC)CC(CN2CCN(C(=O)c3ccccc3)CC2)OC1=O (stereo unspecified)
12,44%,CCC1(CC)CC(CN2CCc3ccccc3C2)OC1=O (stereo unspecified)
13,9%,CCC1(CC)CC(CN2CCN(c3cccc(OC)c3)CC2)OC1=O (stereo unspecified)
14,7%,CCC1(CC)CC(CN2CCN(c3ccc(O)cc3)CC2)OC1=O (stereo unspecified)
15,18%,CCC1(CC)CC(CN2CCN(c3ccc(C#N)cc3)CC2)OC1=O (stereo unspecified)

# Reference: ChEMBL document CHEMBL3046728, “Modifications to five-substituted 3,3-diethyl-4,5-dihydro-2(3H)-furanones en route to novel muscarinic receptor ligands” (Med Chem Res, 2011)
